{"source": "patent US20220313658A1", "about": "“YAP Inhibition for Wound Healing” (The Board of Trustees of the Leland Stanford Junior …, priority 2019, published 2022)", "key": {"[1]": {"test_system": "dorsal excisional wounds", "experiment": "Quantitative analysis of collagen/ECM ultrastructure (Picrosirius Red, machine learning) of healed wounds", "type": "in vivo, mouse", "protocol": "For analysis of Picrosirius Red-stained histologic sections, scars and surrounding normal skin from three biologic replicates were randomly imaged at 5 to 10 separate locations each, for a minimum of 20 images per experimental condition. Next, color deconvolution of Picrosirius Red images was performed in ImageJ using the algorithm previously described by Ruifrok et al., (A. C. Ruifrok, D. A. Johnston, Quantification of histochemical staining by color deconvolution. Anal Quant Cytol Histol 23, 291-299 (2001)) wherein each pure stain is characterized by absorbances within three RGB channels (Color 1=[1 0 0], Color 2=[0 1 0], Color 3=[1 1 1]). Ortho-normal transformation of the histology images produced individual images corresponding to each color's individual contribution to the image. Applied to birefringent Picrosirius Red images (green to red color under polarized light depending on packing of fiber bundles), this technique produced deconvoluted red and green images corresponding to mature and immature connective tissue fibers, which were then analyzed independently. Analysis was thus performed purely using extracellular matrix fibers, with no cellular elements included. Noise reduction of deconvoluted fibers was achieved using an adaptive Wiener filter in Matlab 2019a (wiener2 function), which tailors itself to the local image variance within a pre-specified neighborhood (3-by-3 pixels in the current application). The filter preferentially smooths regions with low variance, thereby preserving sharp edges of fibers. Smooth images were then binarized using the im2bw command and processed through erosion and dilation filters with both linear and diamond-shaped structuring elements to select for fiber-shaped objects. Finally, the fiber network was “skeletonized” using the bwmorph command and various parameters of the digitized map (fiber length, width, persistence, alignment, etc.) were measured using the regionprops command. Dimensionality reduction of quantified fiber network properties by […] stochastic neighbor embedding (t-SNE) was achieved using the default tsne (distance metric specified as Euclidian distance) command in Matlab. A Matlab script containing the fiber quantification pipeline is available at the following Github repository: https://github.com/shamikmascharak/Mascharak-et-al-ENF\nTo overcome these challenges, a novel machine learning algorithm recently reported to quantitatively assess connective tissue and fibrosis based on standard histology stains was employed. (S. Mascharak et al., Automated machine learning analysis of connective tissue networks in acute and chronic skin fibroses (manuscript submitted). (2019)) Briefly, images of Picrosirius Red-stained tissue were color-deconvoluted to isolate ECM fibers from cell bodies and nuclei. Fiber components were image-processed to reduce noise, then binarized to produce a digital map of thousands of fibers and branchpoints. A panel of individual (e.g., length, width) and group (e.g., packing, alignment) fiber properties was then measured to quantitatively profile ECM features.\nVerteporfin- and control-treated specimens were stained with Picrosirius Red and subjected to this analysis."}, "[2]": {"test_system": "dorsal excisional wounds", "experiment": "Tensile strength testing (Instron) of healed wounds", "type": "in vivo, mouse", "protocol": "Tensile strength tests for unwounded skin (N=7) and PBS (N=5) or Verteporfin-treated (N=4) wounds in P60 C57BL/6 mice were conducted at POD 30 using an Instron 5565 equipped with a 100 N load cell. Dorsal skin was harvested and cut into 4 mm-by-15 mm strips. Tissue strips were then secured using custom grips with the scar positioned equidistant to each grip edge and preloaded to a force of 0.02 N to remove slack before the length of the tissue was measured using digital calipers; the width and thickness of the strips were also re-measured to confirm accurate dimensions. Finally, the skin was subjected to an extension test to failure, defined by a sharp decrease in stress with increasing strain, at a rate of 1%/s. The wound breaking force, or yield force, was determined at the maximal force before the tissue entered plastic deformation and eventual failure. True strain was calculated as the change in length divided by the original gauge length, and true stress was calculated as the force divided by the original cross-sectional area. The Young's Modulus was calculated by taking a least-squares regression of the slope during the linear, elastic portion of the stress-strain curve (R^2>0.99). […] In order to characterize the physical properties of Verteporfin-treated wounds, tensile testing was performed on unwounded skin and PBS- or Verteporfin-treated wounds after 30 days of healing."}}, "data": [{"substance": "verteporfin", "values": [{"measurement": "Clustering of connective tissue parameters, Verteporfin-treated wounds vs unwounded skin", "setting": "[1]; 30 days", "result": "increasing overlap"}, {"measurement": "Clustering of connective tissue parameters, Verteporfin-treated wounds vs unwounded skin", "setting": "[1]; 90 days", "result": "complete overlap"}, {"measurement": "ECM fiber metrics (fiber length, width, branching, etc.)", "setting": "[1]; POD 14", "result": "comparable to unwounded skin"}, {"measurement": "Clustering of connective tissue parameters, Verteporfin-treated wounds vs unwounded skin", "setting": "[1]; after 14 days", "result": "largely overlapping clusters"}, {"measurement": "ECM features", "setting": "[1]; four treatments (POD 0, 4, 8 and 12)", "result": "diverged from those of unwounded skin"}, {"measurement": "Force-displacement and stress-strain curves", "setting": "[2]; after 1 month of healing", "result": "more closely resembled unwounded skin than scar"}, {"measurement": "Tensile strength (wound breaking force and Young's modulus)", "setting": "[2]; after 30 days of healing, vs unwounded skin", "result": "did not significantly differ from that of unwounded skin"}]}]}
